Measurements taken from BindingDB's records for doi:10.3109/14756360903389864 (Quaid-I-Azam University, 2010).

Each molecule was assayed against Urease (Canavalia ensiformis, UniProt P07374) (assay: Urease Inhibition Assay).
Sequence of Urease (P07374 whole entry): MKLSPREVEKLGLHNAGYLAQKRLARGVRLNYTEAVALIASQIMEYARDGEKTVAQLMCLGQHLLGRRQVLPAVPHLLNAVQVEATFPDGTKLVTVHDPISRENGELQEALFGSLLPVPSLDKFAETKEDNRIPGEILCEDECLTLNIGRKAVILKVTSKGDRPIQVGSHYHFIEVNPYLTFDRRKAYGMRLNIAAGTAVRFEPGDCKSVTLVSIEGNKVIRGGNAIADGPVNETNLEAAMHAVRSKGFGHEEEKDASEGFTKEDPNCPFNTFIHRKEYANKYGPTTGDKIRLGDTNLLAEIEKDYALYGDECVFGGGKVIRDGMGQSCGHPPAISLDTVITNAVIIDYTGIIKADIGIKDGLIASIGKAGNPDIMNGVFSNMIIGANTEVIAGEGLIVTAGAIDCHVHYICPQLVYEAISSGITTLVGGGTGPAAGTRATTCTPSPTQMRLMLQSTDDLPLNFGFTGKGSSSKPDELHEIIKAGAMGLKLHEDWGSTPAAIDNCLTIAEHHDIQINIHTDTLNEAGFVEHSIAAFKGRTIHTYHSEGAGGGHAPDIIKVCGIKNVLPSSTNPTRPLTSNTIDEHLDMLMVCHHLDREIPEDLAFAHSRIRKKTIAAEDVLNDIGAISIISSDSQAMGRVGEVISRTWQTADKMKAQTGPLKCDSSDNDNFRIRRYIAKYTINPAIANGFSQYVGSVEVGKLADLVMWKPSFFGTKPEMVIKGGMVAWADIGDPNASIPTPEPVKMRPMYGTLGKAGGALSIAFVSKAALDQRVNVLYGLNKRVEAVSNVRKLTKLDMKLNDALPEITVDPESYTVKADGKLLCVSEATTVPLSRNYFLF
For `O=[N+]([O-])c1ccc(Nc2nnc(C(O)c3ccccc3)o2)cc1` (stereo unspecified) [5-(Hydroxybenzyl)-2-(4-nitrophenyl)amino-1,3,4-oxadiazole (4e)], the IC50 was 80.3 µM. `O=[N+]([O-])c1ccc(-n2c(C(O)c3ccccc3)n[nH]c2=S)cc1` (stereo unspecified) [5-(Hydroxybenzyl)-4-(4-nitrophenyl)-2H-1,2,4-triazole-3-thione (5e)] was tested, and the IC50 was 132 µM. `OC(c1ccccc1)c1n[nH]c(=S)n1-c1ccc(Cl)cc1` (stereo unspecified) [5-(Hydroxybenzyl)-4-(4-chlorophenyl)-2H-1,2,4-triazole-3-thione (5b)] was tested, and the IC50 was 18.9 µM. `Cc1ccc(-n2c(C(O)c3ccccc3)n[nH]c2=S)cc1` (stereo unspecified) [5-(Hydroxybenzyl)-4-(4-methylphenyl)-2H-1,2,4-triazole-3-thione (5d)] showed an IC50 of 16.7 µM. `OC(c1ccccc1)c1n[nH]c(=S)n1-c1ccc(Br)cc1` (stereo unspecified) [5-(Hydroxybenzyl)-4-(4-bromophenyl)-2H-1,2,4-triazole-3-thione (5a)] was tested, and the IC50 was 32 µM. `Cc1ccc(Nc2nnc(C(O)c3ccccc3)o2)cc1` (stereo unspecified) [5-(Hydroxybenzyl)-2-(4-methylphenyl)amino-1,3,4-oxadiazole (4d)] showed an IC50 of 16.1 µM.
